What is called IC50 is the concentration that gives 50% inhibition. Broadly, the EC50 is the midpoint of the concentration-response curve. A lower EC50 goes with higher potency in that assay.

Bounds are passed on as bounds.

From patent US9963452B2, “Methods, compounds, and compositions for inhibition of ROS” (AUGUSTA PHARMACEUTICALS INC., priority 2013, dated 2018) come the findings set out here.

One assay deals with T1, EGFR (Homo sapiens, UniProt P00533).
T1 construct: ROS or EGFR enzyme, 0.008 ng/ul
T1 sequence (P00533 25-1210, species assumed): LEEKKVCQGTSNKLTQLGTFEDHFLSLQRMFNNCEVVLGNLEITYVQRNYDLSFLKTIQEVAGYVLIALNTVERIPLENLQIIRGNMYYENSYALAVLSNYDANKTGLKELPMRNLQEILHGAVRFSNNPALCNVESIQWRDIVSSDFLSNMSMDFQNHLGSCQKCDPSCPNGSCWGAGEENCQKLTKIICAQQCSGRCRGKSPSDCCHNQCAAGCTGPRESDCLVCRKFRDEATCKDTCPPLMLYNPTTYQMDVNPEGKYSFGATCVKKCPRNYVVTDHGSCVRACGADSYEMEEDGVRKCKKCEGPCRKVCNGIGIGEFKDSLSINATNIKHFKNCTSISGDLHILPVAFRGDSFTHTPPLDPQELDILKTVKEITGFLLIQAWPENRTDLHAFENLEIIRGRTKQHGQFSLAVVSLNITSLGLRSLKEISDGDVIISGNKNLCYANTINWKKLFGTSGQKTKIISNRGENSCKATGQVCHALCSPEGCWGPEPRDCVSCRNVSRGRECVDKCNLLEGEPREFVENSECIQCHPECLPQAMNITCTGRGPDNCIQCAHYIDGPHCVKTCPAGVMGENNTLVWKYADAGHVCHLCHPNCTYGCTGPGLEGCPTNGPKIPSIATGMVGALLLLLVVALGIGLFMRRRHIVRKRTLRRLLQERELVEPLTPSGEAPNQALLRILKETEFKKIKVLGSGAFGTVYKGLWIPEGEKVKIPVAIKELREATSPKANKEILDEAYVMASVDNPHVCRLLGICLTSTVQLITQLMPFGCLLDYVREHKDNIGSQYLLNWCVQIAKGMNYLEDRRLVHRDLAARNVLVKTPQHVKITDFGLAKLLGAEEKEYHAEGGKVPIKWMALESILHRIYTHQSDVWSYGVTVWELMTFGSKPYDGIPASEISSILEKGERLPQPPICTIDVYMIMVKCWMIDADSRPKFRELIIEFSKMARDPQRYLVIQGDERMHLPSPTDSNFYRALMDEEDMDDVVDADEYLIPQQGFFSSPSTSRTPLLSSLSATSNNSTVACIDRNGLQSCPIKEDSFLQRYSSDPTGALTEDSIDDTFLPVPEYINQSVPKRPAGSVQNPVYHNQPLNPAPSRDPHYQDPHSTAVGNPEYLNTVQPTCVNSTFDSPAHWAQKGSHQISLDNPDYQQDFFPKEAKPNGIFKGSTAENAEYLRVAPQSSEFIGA
Put plainly: In vitro EGFR enzymatic reaction assay (HTRF, Cisbio). It counts as biochemical. A general note: TR-FRET usually uses a lanthanide donor and a delayed reading to cut background.

A further assay concerns the target ROS (Homo sapiens, UniProt P08922). Put plainly: In vitro ROS enzymatic reaction assay (HTRF, Cisbio). Type of assay: biochemical. Details: ROS or EGFR enzyme, 0.008 ng/ul. Particulars: for inhibition at 5 µM: ROS kinase, compound at 5 uM, read-out: Kinase Inhib. 5 uM (%). Here is the method: The ROS enzymatic reactions were carried out with a high throughput screening platform for phosphor-detection of kinase activity. This platform based on homogeneous time resolved fluorescence (HTRF) technology from Cisbio Bioassays, Inc. (Cisbio). […] The reaction was allowed to proceed for 30 minutes at room temperature. An equal volume of detection buffer was then added to the reaction mix.

The test system of assay [1] is HeLa cervical cancer cell line. As to the kind of experiment: In-vitro cell survival assay (Alamar blue), HeLa. It counts as cell-based. Particulars: Homo sapiens, 24 h, one day after compound addition. The gist of the method: (§1)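 Cells seeded at 2-5×10^3 per well, grown 2 days, then exposed to compound at 100, 10 or 1 uM (0.5% DMSO final) for one day. Alamar blue redox dye read as proliferation/viability, normalized to vehicle wells as percent decrease and converted to EC50.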

Assay [2] deals with LN18 glioblastoma cell line. Put plainly: In-vitro cell survival assay (Alamar blue), LN18. Type of assay: cell-based. Particulars: Homo sapiens, LN-18, 24 h; LN18, one day after compound addition. The gist of the method: as §1
Background: Alamar Blue is a resazurin reagent that responds to reducing activity.

Assay [3] deals with U118 glioblastoma cell line. As to the kind of experiment: In-vitro cell survival assay (Alamar blue), U118. It counts as cell-based. Particulars: 24 h; U118, one day after compound addition. Put shortly:
as §1

Assay [4] deals with U138 glioblastoma cell line. As to the kind of experiment: In-vitro cell survival assay (Alamar blue), U138. Type of assay: cell-based. Particulars: 24 h; U138, one day after compound addition. The gist of the method:
as §1

For assay [5], the system named is U87 glioblastoma cell line. As to the kind of experiment: In-vitro cell survival assay (Alamar blue), U87. It counts as cell-based. Particulars: 24 h; U87, one day after compound addition. The gist of the method: as §1

ROS, sequence (P08922 28-2347): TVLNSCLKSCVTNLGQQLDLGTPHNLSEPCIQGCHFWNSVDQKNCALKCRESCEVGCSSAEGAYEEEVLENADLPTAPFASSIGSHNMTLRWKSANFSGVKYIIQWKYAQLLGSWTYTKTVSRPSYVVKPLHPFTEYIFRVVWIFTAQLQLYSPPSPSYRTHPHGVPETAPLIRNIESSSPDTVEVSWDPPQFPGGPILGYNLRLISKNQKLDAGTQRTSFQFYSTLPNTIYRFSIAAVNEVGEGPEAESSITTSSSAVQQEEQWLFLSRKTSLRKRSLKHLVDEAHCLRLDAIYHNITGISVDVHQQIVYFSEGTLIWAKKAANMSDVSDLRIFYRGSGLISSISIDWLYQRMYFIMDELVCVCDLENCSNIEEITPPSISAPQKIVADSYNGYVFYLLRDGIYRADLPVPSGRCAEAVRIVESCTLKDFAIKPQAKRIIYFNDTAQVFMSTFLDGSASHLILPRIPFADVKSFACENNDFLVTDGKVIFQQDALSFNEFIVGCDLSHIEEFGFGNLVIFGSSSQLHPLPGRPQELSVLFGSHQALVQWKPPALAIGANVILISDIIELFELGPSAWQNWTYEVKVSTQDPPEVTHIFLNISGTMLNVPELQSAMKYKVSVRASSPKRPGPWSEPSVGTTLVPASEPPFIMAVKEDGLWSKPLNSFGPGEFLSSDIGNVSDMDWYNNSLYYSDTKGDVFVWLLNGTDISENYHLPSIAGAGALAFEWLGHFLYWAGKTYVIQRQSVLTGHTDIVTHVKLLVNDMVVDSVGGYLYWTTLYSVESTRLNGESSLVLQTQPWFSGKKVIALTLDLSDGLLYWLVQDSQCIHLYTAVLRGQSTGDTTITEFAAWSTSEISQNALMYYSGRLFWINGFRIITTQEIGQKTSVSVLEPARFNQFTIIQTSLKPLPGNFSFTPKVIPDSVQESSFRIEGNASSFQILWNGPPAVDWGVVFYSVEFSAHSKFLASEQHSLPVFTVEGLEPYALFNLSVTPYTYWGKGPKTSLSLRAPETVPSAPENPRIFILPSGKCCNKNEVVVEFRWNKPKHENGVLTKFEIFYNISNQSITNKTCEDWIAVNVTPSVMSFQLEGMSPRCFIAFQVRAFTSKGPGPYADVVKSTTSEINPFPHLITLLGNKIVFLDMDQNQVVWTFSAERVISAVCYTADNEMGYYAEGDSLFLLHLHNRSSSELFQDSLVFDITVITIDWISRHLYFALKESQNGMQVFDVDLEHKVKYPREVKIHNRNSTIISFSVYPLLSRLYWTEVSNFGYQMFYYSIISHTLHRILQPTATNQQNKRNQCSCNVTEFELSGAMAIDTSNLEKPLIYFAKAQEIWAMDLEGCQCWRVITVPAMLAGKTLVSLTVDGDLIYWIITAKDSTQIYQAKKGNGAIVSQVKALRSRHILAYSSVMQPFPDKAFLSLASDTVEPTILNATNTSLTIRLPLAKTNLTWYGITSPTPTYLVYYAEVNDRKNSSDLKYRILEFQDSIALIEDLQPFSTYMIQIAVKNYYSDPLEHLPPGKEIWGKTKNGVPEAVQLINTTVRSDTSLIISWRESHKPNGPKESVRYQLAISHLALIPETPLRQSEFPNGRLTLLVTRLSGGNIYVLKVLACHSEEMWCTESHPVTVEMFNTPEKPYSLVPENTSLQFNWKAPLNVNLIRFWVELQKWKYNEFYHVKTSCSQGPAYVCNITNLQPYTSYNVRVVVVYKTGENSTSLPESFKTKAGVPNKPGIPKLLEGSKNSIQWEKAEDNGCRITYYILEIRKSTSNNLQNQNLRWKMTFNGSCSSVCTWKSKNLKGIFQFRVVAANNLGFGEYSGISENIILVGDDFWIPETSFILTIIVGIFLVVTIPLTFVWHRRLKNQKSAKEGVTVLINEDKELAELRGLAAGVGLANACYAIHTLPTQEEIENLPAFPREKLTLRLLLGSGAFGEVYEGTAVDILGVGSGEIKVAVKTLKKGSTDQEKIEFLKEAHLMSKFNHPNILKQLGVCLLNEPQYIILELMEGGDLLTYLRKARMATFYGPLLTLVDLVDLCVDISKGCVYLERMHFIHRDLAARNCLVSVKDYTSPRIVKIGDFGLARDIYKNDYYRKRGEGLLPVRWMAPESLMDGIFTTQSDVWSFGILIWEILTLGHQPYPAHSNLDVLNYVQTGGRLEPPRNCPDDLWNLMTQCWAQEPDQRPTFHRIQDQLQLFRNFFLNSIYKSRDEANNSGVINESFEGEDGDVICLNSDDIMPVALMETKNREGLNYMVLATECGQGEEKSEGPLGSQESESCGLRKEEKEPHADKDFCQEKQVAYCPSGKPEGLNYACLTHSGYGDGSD

`Clc1nccc(Nc2cc(C3CC3)[nH]n2)n1` [drawing 298] showed an IC50 on EGFR greater than 50 µM. Moreover, on ROS, the IC50 turned out to be 2.1 µM and the inhibition at 5 µM is 38.4%.
Taken in the same sequence, the figures for `Nc1ccc(Nc2nccc(Nc3cc(C4CC4)[nH]n3)n2)cc1` [drawing 299] were 18.9 µM, 0.045 µM and 100%.
Turning to `c1cc(Nc2cc(C3CC3)[nH]n2)nc(Nc2ccc(NCc3cc(C4OCCO4)c(C4OCCO4)s3)cc2)n1` [drawing 300], the 50% inhibitory concentration (IC50) at EGFR is greater than 50 µM; against ROS it was 1.14 µM. Further, the inhibition at 5 µM at ROS is 79.3%.
With `Nc1cccc(C2CCN(c3nccc(Nc4ccc5ncsc5c4)n3)CC2)c1` [drawing 302], the IC50 against EGFR was 4.7 µM; on ROS, 0.048 µM. Besides, the inhibition at 5 µM at ROS amounted to 101%.
Taken in the same sequence, the figures for `c1cc(Nc2nccc(Nc3ccc4ncsc4c3)n2)cc(C2CCNCC2)c1` [drawing 303] were 4.6 µM, 0.042 µM and 100%.
Taken in the same sequence, the figures for `C1=C(c2cccc(Nc3nccc(Nc4ccc5ncsc5c4)n3)c2)CCNC1` [drawing 304] were greater than 5 µM, 0.041 µM and 101%.
In the case of `CN(C)CC(C)(C)CNC(=O)c1cccc(Nc2nccc(Nc3ccc4ncsc4c3)n2)c1` [drawing 413], the concentration giving a half-maximal response (EC50) is 24 µM in assay [1]; 9 µM in assay [2]; 76 µM in assay [3]; 73 µM in assay [4]; 32 µM in assay [5].
Taken in the same sequence, the figures for `CN1CCN(C(=O)c2cccc(Nc3nccc(Nc4ccc5ncsc5c4)n3)c2)CC1` [drawing 415] were 11 µM, 14 µM, 39 µM, 32 µM and 22 µM.
Take `Cc1cccc(Nc2nccc(Nc3cccc(C(=O)NCCCN4CCOCC4)c3)n2)c1` [drawing 416]: the 50% effective concentration (EC50) was 34 µM in assay [1]; 40 µM in assay [2]; greater than 100 µM in assay [3]; 76 µM in assay [4]; 99 µM in assay [5].
In the case of `Nc1nc(Nc2ccc(C(=O)NCCc3ccncc3)cc2)cc(Nc2ccc3ncsc3c2)n1` [drawing 417], the EC50 in assay [1] was 22 µM; in assay [2] it was greater than 100 µM; in assay [3], greater than 100 µM; in assay [4], 33 µM; in assay [5] it was 17 µM.
With `O=C(NCCc1ccccc1)c1cccc(Nc2nccc(Nc3ccc4ncsc4c3)n2)c1` [drawing 418], the EC50 turned out to be 15 µM in assay [1]; 11 µM in assay [2]; 24 µM in assay [3]; 38 µM in assay [4]; 13 µM in assay [5].
Taken in the same sequence, the figures for `Cc1ccc(CNC(=O)c2cccc(Nc3nccc(Nc4ccc5ncsc5c4)n3)c2)o1` [drawing 419] were 10 µM, 7 µM, 17 µM, 19 µM and 16 µM.
Turning to `C[C@H](O)CN(C[C@H](C)O)C(=O)c1cccc(Nc2nccc(Nc3ccc4ncsc4c3)n2)c1` [drawing 420], the EC50 came out at 14 µM in assay [1]; 31 µM in assay [2]; 31 µM in assay [3]; 19 µM in assay [4]; 21 µM in assay [5].
On to `O=C(c1cccc(Nc2nccc(Nc3ccc4ncsc4c3)n2)c1)N1CCCCCC1` [drawing 421], for which the EC50 is 9 µM in assay [1]; 9 µM in assay [2]; 81 µM in assay [3]; greater than 100 µM in assay [4]; 25 µM in assay [5].
For `Cc1cccc(Nc2nccc(Nc3cccc(C(=O)NC4CCN(C)CC4)c3)n2)c1` [drawing 422], the EC50 in assay [1] came out at 25 µM; in assay [2] it was 5 µM; in assay [3] it was 60 µM; in assay [4] it was 20 µM; in assay [5], 18 µM.
Take `O=C(NCc1ccc(F)cc1)c1cccc(Nc2nccc(Nc3ccc4ncsc4c3)n2)c1` [drawing 423]: the EC50 was 6 µM in assay [1]; 9 µM in assay [2]; 24 µM in assay [3]; 18 µM in assay [4]; 11 µM in assay [5].
As to `CC(C)CN(CC(C)C)C(=O)c1cccc(Nc2nccc(Nc3ccc4ncsc4c3)n2)c1` [drawing 424], the EC50 is 15 µM in assay [1]; 22 µM in assay [2]; greater than 100 µM in assay [3]; 54 µM in assay [4]; 17 µM in assay [5].
Taken in the same sequence, the figures for `Cc1cccc(Nc2nccc(Nc3cccc(C(=O)N(C)CCCN(C)C)c3)n2)c1` [drawing 425] were 39 µM, 89 µM, greater than 100 µM, greater than 100 µM and 46 µM.
On to `O=C(COc1ccccc1)NCC(c1cccs1)S(=O)(=O)c1ccc(Cl)cc1` (stereo not drawn) [drawing 427], for which the concentration for a half-maximal effect (EC50) is greater than 100 µM in assay [1]; 83 µM in assay [2]; 45 µM in assay [3]; greater than 100 µM in assay [4]; 36 µM in assay [5].
For the compound `Cc1cccc(C(=O)n2nc(-c3ccco3)nc2NCc2ccccc2)c1` [drawing 431], the EC50 in assay [1], in assay [2], in assay [3], in assay [4] and in assay [5] was greater than 100 µM each time.
Take `O=C(c1ccccc1)n1nc(-c2ccco2)nc1NCc1ccc(Cl)cc1` [drawing 432]: the EC50 in assay [1], in assay [2], in assay [3], in assay [4] and in assay [5] was greater than 100 µM in each case.
Take `O=C(NCC(c1cccs1)S(=O)(=O)c1ccc(F)cc1)c1ccccc1` (stereo not drawn) [drawing 434]: the EC50 is 77 µM in assay [1]; 21 µM in assay [2]; 54 µM in assay [3]; greater than 100 µM in assay [4]; 30 µM in assay [5].
In the case of `Clc1nccc(Nc2cc(C3CC3)[nH]n2)n1` [drawing 435], the EC50 was 45 µM in assay [1]; greater than 100 µM in assay [2]; 31 µM in assay [3]; 63 µM in assay [4]; 29 µM in assay [5].
On to `Nc1ccc(Nc2nccc(Nc3cc(C4CC4)[nH]n3)n2)cc1` [drawing 436], for which the EC50 came to 0.4 µM in assay [1]; 10 µM in assay [2]; 30 µM in assay [3]; 1.9 µM in assay [4]; 5 µM in assay [5].
Taken in the same sequence, the figures for `c1cc(Nc2cc(C3CC3)[nH]n2)nc(Nc2ccc(NCc3cc(C4OCCO4)c(C4OCCO4)s3)cc2)n1` [drawing 437] were 13 µM, 14 µM, 18 µM, 14 µM and 13 µM.
Taken in the same sequence, the figures for `O=C(c1cccc(Nc2nccc(Nc3ccc4ncsc4c3)n2)c1)N1CCCCC1` [drawing 438] were 19 µM, 12 µM, 52 µM, greater than 100 µM and 20 µM.
Taken in the same sequence, the figures for `C[C@@H](Oc1cc(-c2cnn(C3CCNCC3)c2)cnc1N)c1c(Cl)ccc(F)c1Cl` [drawing 491] were 15 µM, 20 µM, 13 µM, 11.9 µM and 12 µM.
